Laboratory results: patent US20180030091A1, “COLLAGEN-BINDING SYNTHETIC PEPTIDOGLYCANS FOR USE IN VASCULAR INTERVENTION” (Purdue Research Foundation, priority 2010, published 2018)
“Also recorded” adds a separate entry of the source. One block for each substance: values may come before it. Where no end group is shown, it is not given here.

Key:
[1] = tested on: Human platelets on Type I fibrillar collagen; experiment: Inhibition of platelet activation on fibrillar collagen after 24 hour rinse (PF4, NAP2); assay type: cell-based; details: 50 μM, incubated 15 min, rinsed for 24 hours
Protocol: Type I fibrillar collagen from Chronolog was diluted in isotonic glucose to a concentration of 50 μg/mL. 50 μL of collagen solution was added to each well of a high bind 96-well plate. The plate was incubated overnight at 4° C., and then rinsed 3× with 1×PBS. For microplate assays, peptidoglycan was diluted in 1×PBS at concentrations between 0.0001 μM to 100 μM and 50 μL solution was added to the collagen coated wells. DS, peptide, or 1×PBS were also added to collagen coated wells as controls. Treatments were incubated at 37° C. with shaking at 200 rpm for 15 min. Wells were then rinsed of unbound treatment by removing the treatment solution, adding PBS, and shaking the wells for 24 hours. During the 24 hours, PBS solution was changed 3 times.
Human whole blood was collected from healthy volunteers by venipuncture. The first 5 mL of blood was discarded and approximately 20 mL was then collected into citrated glass vacutainers (BD Bioscience). Blood was centrifuged in the glass tube for 20 min at 200 g at 25° C. The top layer of the centrifuged blood, the platelet rich plasma (PRP), was used for platelet experiments.
PRP (50 μL/well) was added to the microplate for 1 hour at room temperature without shaking. After 1 hour of incubation, 45 μL of PRP was removed from each well and added to a microcentrifuge tube containing […] ETP (107 mM EDTA, 12 mM theophylline, and 2.8 mM prostaglandin E1) to inhibit further platelet activation. These tubes were spun at 4° C. for 30 min at 2000 g to pellet the platelets. The supernatant (platelet serum) was collected for ELISA studies to test for the presence of platelet activation markers PF-4 and NAP2. Sandwich ELISAs were utilized in order to detect each protein. The components for both sandwich ELISAs were purchased from R&D Systems and the provided protocols were followed. Platelet serum was diluted 10,000 times in 1% BSA in 1×PBS for values to fall within a linear range.
Platelet activation was measured through release of platelet factor 4 (PF4) and β-thromboglobulin (NAP2). […] Since the high SILY/DS ratio is expected to provide higher binding affinity to the collagen surface due to multiple interactions, peptidoglycans with the higher SILY/DS ratios were prepared.
The number of peptides per DS molecule was further increased to 18 to create the peptidoglycan DS-SILY18, and the concentration of molecule needed to inhibit platelet activation was tested. […] Within solubility limits, the number of peptides can be increased to achieve maximal platelet inhibition as well as to reduce diffusion over time, where a higher level of peptidoglycans on the denuded vessel wall is sustained.

collagen [2] = experiment: SILY binding to collagen (Biacore surface plasmon resonance)
Protocol: Biacore studies were performed on a Biacore 2000 using a CM-3 chip (Biacore, Inc., Piscataway, N.J.). The CM-3 chip is coated with covalently attached carboxymethylated dextran, which allows for attachment of the substrate collagen via free amine groups. Flow cells (FCs) 1 and 2 were used, with FC-1 as the reference cell and FC-2 as the collagen immobilized cell. Each FC was activated with EDC-NHS, and 1500 RU of collagen was immobilized on FC-2 by flowing 1 mg/mL collagen in sodium acetate, pH 4, buffer at 5 μL/min for 10 min. Unreacted […] sites were capped with ethanolamine; the control FC-1 was activated and capped with ethanolamin.
To determine peptide binding affinity, SILY was dissolved in 1×HBS-EP buffer (Biacore) at varying concentrations from 100 μM to 1.5 μm in 2-fold dilutions. […] The first 10 injections were buffer injections, which help to prime the system, followed by randomized sample injections, run in triplicate. Analysis was performed using BIAevaluation software (Biacore).

collagen [3] = target: T1, collagen (Bos taurus, UniProt P02453+P02465); experiment: Cryo-SEM measurement of fibril density; details: 10:1 molar ratio, cryo-SEM 10,000×
T1 construct: purchased Inamed, Freemont, Calif; (Nutragen)
Protocol: Collagen gels were formed in the presence of each additive at a 10:1 molar ratio, as described in EXAMPLE 15, directly on the SEM stage, processed, and imaged as described. Images at 10,000× were analyzed for fibril density calculations. Images were converted to 8-bit black and white, and threshold values for each image were determined using ImageJ software (NIH). The threshold was defined as the value where all visible fibrils are white, and all void space is black. The ratio of white to black area was calculated using MatLab software. All measurements were taken in triplicate and thresholds were determined by an observer blinded to the treatment.

[4] = tested on: Human aortic smooth muscle cells; experiment: Collagen remodeling: hydroxyproline content in medium of cell-seeded collagen gels; assay type: cell-based; details: up to 30 days
Protocol: Following a method by Grassl, et al. (Grassl, et al., Journal of Biomedical Materials Research 2002, 60, (4), 607-612), which is herein incorporated in its entirety, collagen gels with or without synthetic PG mimics were formed as described in EXAMPLE 15. Human aortic smooth muscle cells (Cascade Biologics, Portland, Oreg.) were seeded within collagen gels by adding 4×10^6 cells/mL to the neutralized collagen solution prior to incubation. The cell-collagen solutions were pipetted into an 8-well Lab-Tek chamber slide and incubated in a humidified 37° C. and 5% CO2 incubator. After gelation, the cell-collagen gels will be covered with 1 mL Medium 231 as prescribed by Cascade. Every 3-4 days, the medium was removed from the samples and the hydroxyproline content measured by a standard hydroxyproline assay (Reddy, 1996).
To measure degraded collagen in the supernatant medium, the sample was lyophilized, the sample hydrolyzed in 2 M NaOH at 120° C. for 20 min. After cooling, free hydroxyproline was oxidized by adding chloramine-T (Sigma) and reacting for 25 min at room temperature. Ehrlich's aldehyde reagent (Sigma) was added and allowed to react for 20 min at 65° C. and followed by reading the absorbance at 550 nm on an M-5 spectrophotometer (Molecular Devices). […] Cultures were incubated for up to 30 days and three samples of each treatment measured. […]

Fibrillar collagen = experiment: Binding affinity of biotin labeled peptidoglycan to fibrillar collagen; details: biotin labeled peptidoglycans, fitted saturation binding curves
Protocol: Fibrillar collagen (Chronolog, Havertown, Pa.) was coated onto the surface of a 96-well high bind plate (Costar) at a concentration of 50 μg/mL diluted in isotonic glucose. Plates were covered and incubated overnight at 4° C. Unbound collagen was removed by rinsing 3 times with 1×PBS pH 7.4. Plates were then blocked with 1% BSA for 3 hours at room temperature. Peptidoglycan was dissolved at varying concentrations in 1×PBS pH 7.4 containing 1% BSA and were immediately added to the collagen surfaces, and allowed to incubate for 15 min at room temperature. Plates were then rinsed 3 times with 1×PBS pH 7.4 containing 1% BSA. Streptavidin-HRP solution (R&D Systems, Minneapolis, Minn.) was then added to the plates and incubated for 20 minutes at room temperature. […] The color evolving reaction was stopped with 50 μL 2N sulfuric acid and absorbance was measured at 450 nm using an M5 UV Vis Spectrophotometer (Molecular Devices). Plate imperfections (540 nm) were subtracted from absorbance values.
The binding affinities of biotin labeled peptidoglycans, labeled using protocols known in the art, DS-SILY4 and DS-SILY18 were calculated by fitting the saturation binding curves and calculating the inflection point. […]

[5] = tested on: Human coronary artery smooth muscle cells (HCA SMC); experiment: Gel compaction by smooth muscle cells in collagen gels; assay type: cell-based
Protocol: Human coronary artery smooth muscle cells (HCA SMC) (Cascade Biologics) were cultured in growth medium (Medium 231 supplemented with smooth muscle growth factor). Cells from passage 3 were used for all experiments. Differentiation medium (Medium 231 supplemented with 1% FBS and 1×pen/strep) was used for all experiments unless otherwise noted.
Collagen gels were prepared with each additive as described with the exception that the 1×PBS sample addition was omitted to accommodate the addition of cells in media. After incubating on ice for 30 min, HCA SMCs in differentiation medium were added to the gel solutions to a final concentration of 1×10^6 cells/mL. Gels were formed in quadruplicate in 48-well non-tissue culture treated plates (Costar) for 6 hrs before adding 500 μL/well differentiation medium. Gels were freed from the well edges after 24 hrs. Medium was changed every 2-3 days and images for compaction were taken at the same time points using a Gel Doc System (Bio-Rad). The cross-sectional area of circular gels correlating to degree of compaction was determined using ImageJ software (NIH). Gels containing no cells were used as a negative control and cells in collagen gels absent additive were used as a positive control. By day 10 all gels had compacted to approximately 10% of the original gel area, and differences between additives were small.

collagen [6] = experiment: Cryo-SEM measurement of fibril diameters; details: cryo-SEM images at 20,000×
Protocol: Using a modification of EXAMPLE 18 fibril diameters were measured by 8cryo-SEM. Fibril diameters from cryo-SEM images taken at 20,000× were measured using ImageJ software (NIH). At least 45 fibrils were measured for each treatment. Results are presented as Avg.±S.E. Statistical analysis was performed using DesignExpert software (StatEase) with α=0.05.

collagen [7] = target: T1, collagen; experiment: Collagen fibrillogenesis by turbidity at 313 nm; assay type: biochemical; details: 1:1 collagen:additive molar ratio
Protocol: Collagen fibrillogenesis was monitored by measuring turbidity related absorbance at 313 nm providing information on rate of fibrillogenesis and fibril diameter. Gel solutions were prepared as described in EXAMPLE 15 (4 mg/mL collagen, 10:1 collagen:treatment, unless otherwise indicated) and 50 uL/well were added at 4° C. to a 384-well plate. The plate was kept at 4° C. for 4 hours before initiating fibril formation. A SpectraMax M5 at 37° C. was used to measure absorbance at 313 nm at 30 s intervals for 6 hours.
A fibrillogenesis assay as described for DS-SILY, EXAMPLE 17, performed with the conjugate DS-Dc13.

T1 sequence (P02453 162-1217 limits assumed): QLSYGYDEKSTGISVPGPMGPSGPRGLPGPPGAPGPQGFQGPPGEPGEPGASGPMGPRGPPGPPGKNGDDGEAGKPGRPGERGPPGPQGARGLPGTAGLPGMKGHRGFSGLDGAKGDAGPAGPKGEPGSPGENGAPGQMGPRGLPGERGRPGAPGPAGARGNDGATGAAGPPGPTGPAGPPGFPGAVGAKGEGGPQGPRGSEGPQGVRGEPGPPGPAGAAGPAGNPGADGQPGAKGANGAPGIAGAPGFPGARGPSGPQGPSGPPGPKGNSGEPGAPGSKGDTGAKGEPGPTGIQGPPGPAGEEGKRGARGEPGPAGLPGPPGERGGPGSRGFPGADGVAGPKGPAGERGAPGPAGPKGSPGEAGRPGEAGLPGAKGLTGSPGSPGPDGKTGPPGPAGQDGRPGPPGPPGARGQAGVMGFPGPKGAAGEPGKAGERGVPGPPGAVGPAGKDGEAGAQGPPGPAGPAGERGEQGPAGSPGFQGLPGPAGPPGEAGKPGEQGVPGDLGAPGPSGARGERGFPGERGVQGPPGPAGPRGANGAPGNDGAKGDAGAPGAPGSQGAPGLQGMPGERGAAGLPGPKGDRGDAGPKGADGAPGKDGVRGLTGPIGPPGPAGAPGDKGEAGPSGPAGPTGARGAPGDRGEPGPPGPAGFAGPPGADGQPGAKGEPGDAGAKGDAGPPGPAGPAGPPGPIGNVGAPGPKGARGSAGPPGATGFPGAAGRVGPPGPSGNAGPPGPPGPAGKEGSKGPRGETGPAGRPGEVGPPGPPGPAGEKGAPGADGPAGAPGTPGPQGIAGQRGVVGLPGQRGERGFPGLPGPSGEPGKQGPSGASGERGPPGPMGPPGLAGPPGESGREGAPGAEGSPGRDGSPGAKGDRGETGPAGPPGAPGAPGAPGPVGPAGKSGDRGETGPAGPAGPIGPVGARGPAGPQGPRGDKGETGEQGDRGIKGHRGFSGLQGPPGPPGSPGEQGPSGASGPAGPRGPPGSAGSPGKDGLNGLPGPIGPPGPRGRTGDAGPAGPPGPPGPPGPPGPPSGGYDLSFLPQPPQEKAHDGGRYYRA
T1 sequence (P02465 80-1117 limits assumed): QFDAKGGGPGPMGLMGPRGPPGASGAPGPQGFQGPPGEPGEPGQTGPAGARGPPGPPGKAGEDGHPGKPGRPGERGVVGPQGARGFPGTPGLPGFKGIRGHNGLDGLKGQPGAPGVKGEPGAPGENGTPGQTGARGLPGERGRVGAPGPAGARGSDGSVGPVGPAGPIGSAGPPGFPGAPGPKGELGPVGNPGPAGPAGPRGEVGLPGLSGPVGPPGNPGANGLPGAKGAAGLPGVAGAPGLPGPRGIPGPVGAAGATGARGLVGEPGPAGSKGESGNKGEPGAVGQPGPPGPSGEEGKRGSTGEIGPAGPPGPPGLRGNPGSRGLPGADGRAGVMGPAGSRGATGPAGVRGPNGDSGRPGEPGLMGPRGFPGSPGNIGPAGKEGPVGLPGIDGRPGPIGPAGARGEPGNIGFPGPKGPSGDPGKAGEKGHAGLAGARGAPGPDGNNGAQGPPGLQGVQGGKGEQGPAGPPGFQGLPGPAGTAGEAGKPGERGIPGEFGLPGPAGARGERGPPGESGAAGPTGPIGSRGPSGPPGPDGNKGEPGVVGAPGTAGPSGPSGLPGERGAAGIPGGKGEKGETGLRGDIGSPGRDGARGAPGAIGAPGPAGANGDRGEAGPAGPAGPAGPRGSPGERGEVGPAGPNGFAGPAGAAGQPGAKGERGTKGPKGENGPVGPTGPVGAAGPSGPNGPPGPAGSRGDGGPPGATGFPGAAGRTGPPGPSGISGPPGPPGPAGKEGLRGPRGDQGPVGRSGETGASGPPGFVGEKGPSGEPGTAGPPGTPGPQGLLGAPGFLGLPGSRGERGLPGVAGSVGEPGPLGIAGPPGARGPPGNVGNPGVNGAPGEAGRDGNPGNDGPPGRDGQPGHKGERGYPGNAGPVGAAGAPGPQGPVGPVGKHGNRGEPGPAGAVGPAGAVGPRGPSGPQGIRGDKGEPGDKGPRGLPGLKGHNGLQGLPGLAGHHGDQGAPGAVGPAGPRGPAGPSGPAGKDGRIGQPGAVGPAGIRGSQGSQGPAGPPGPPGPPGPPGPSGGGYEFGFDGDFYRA

binding to collagen (association/disassociation curves) (collagen [2]; 100 μM to 1.5 μm in 2-fold dilutions): binds reversibly with collagen
Kd (collagen [2]; calculated from the on-off binding kinetics, collagen on CM-3 chip): 1200 nM
fibril density (ratio of fibril containing area to void space) (collagen [3]): significantly greater fibril density
Substance: RRANAALKAGELYKSILYGC
inhibition of platelet activation (release of PF4 and NAP2) [1]: little to no effect on inhibiting platelet activation
collagen degradation by hydroxyproline content in cell medium [4]: greater collagen degradation compared to collagen alone

Kd (Fibrillar collagen): 118 nM
Substance: DS-SILY4: dermatan sulfate with 4 SILY peptides via BMPH; tested biotin labeled (RRANAALKAGELYKSILYGC-NH2; also: Cys thiol coupled via BMPH crosslinker to oxidized dermatan sulfate, 4 peptides per glycan, biotin label in tested form, position not given here)

Substance: Decorin
gel compaction, day 7 ([5]; Day 7): significant against all samples
gel compaction, days 3 and 5 ([5]; Days 3 and 5): significant relative to collagen and DS
fibril diameter (collagen [6]): significantly decrease fibril diameter over collagen or collagen+DS; also recorded: significantly decrease fibril diameter over collagen or collagen+dermatan sulfate

Substance: SYIRIADTNITGC [Dc13]
fibrillogenesis (absorbance at 313 nm), free peptide (collagen [7]): little effect on fibrillogenesis compared to collagen alone
collagen degradation by hydroxyproline content in cell medium [4]: greater collagen degradation compared to collagen alone
